Measured values: US9714235B2, “Quinazoline derivatives, compositions thereof, and use as pharmaceuticals” (Shanghai Fochon Pharmaceutical Co., Ltd., priority 2013, dated 2017)
Each block holds one compound with its values, some of them ahead of it.

Key:
[1] = tested on: BT474 (EGFR overexpression) cells; experiment: Cell proliferation assay (MTS), BT474; format: cell-based; settings: Homo sapiens, BT-474, 168 h, 7 d incubation
Experimental: (§1) Cell Proliferation Asssay
(§2) Materials and Preparation of Reagents
(§3) MTS testing kit was purchased from Promega. […] Dimethyl sulfoxide (DMSO) was purchased from Sigma.
(§4) Inhibition Activity of Cell Proliferation
(§5) In this assay, inhibition of EGFR and ErbB2 was detected by the inhibition of BT474 and N87 cells proliferation. BT474 cells were cultured in culture flasks to 40-80% confluence in DMEM plus 10% fetal bovine serum. […] Cells were collected and plated onto 96-well plates at desired cell density (BT474: 1000 cells/well; N87: 1000 cells/well). BT474 plates were incubated 48 h at 37° C., with 5% CO2 to adhere. N87 plates were incubated overnight at 37° C., with 5% CO2 to adhere. […] Place BT474 plates at 37° C., with 5% CO2 for 7d. Place N87 plates at 37° C., with 5% CO2 for 72 h. After removing the medium, 20 μl MTS/100 μl medium mixture solution were added to each well and incubate the plates for exactly 2 hours. Measure absorbance at 490 nm and 650 nm (reference wavelength). IC50 was calculated using GraphPad Prism 5.0.

[2] = tested on: N87 (EGFR and ErbB2 overexpression) cells; experiment: Cell proliferation assay (MTS), N87; format: cell-based; settings: 72 h incubation
Experimental: as §1, §2, §3, §4, §5

[3] = tested on: NCI-N87 tumor cells; experiment: N87 tumor in vivo study; design: species or system Female BALB/cA-nude mice; settings: for Average Tumor Volume Day 21 / Inhibition rate / T/C: Day 21; for Average Tumor Volume Day 0: Day 0 (baseline)
Experimental: Female BALB/cA-nude mice were implanted with NCI-N87 tumor cells. Tumor measurements were recorded twice a week. Randomize animals to groups (Day 0) when tumors reached an average size of 60-150 mm^3. Group size was 6 mice. Test compound was administered p.o. once daily for 21 days. Tumor inhibition values were determined at Day 21.
Tumor volume (V) was calculated as follow: V=½×a×b, where a and b are the length and width of the tumor respectively. Relative tumor proliferation rate was calculated as follow: T/C (%)=(T−T0)/(C−C0)×100, where T and C are the tumor volume of test compound group and control group on Day 21, T0 and C0 are the tumor volume of test compound group and control group on Day 0.

[4] = 2 mg/kg p.o. once daily for 21 days
[5] = 5 mg/kg p.o. once daily for 21 days
[6] = 20 mg/kg p.o. once daily for 21 days
[7] = 10 mg/kg p.o. once daily for 21 days
[8] = 320 mg/kg p.o. once daily for 21 days

- IC50 [1]: 25 nM
SMILES: COC[C@@H]1CCN1C/C=C/C(=O)Nc1cc2c(Nc3ccc(F)c(Cl)c3)ncnc2cc1OC[C@H]1COCCO1 [Example 15, (E)-N-(7-(((R)-1,4-dioxan-2-yl)methoxy)-4-(3-chloro-4-fluorophenylamino)quinazolin-6-yl)-4-((S)-2-(methoxymethyl)azetidin-1-yl)but-2-enamide]

- IC50 [1]: 22.2 nM
SMILES: COC[C@@H]1CCN1C/C=C/C(=O)Nc1cc2c(Nc3ccc(F)c(Cl)c3)ncnc2cc1OC[C@H]1[C@@H]2COC[C@@H]21 [Example 20, (E)-N-(7-((1R,5S,6r)-3-oxabicyclo[3.1.0]hexan-6-ylmethoxy)-4-(3-chloro-4-fluorophenylamino)quinazolin-6-yl)-4-((S)-2-(methoxymethyl)azetidin-1-yl)but-2-enamide]

- IC50 [1]: 21.5 nM
SMILES: COC[C@@H]1CCN1C/C=C/C(=O)Nc1cc2c(Nc3ccc(F)c(Cl)c3)ncnc2cc1OC [Example 3, (S,E)-N-(4-(3-chloro-4-fluorophenylamino)-7-methoxyquinazolin-6-yl)-4-(2-(methoxymethyl)azetidin-1-yl)but-2-enamide]
- IC50 [2]: 14.2 nM

- IC50 [1]: 2.9 nM
SMILES: COCC1CCN1C/C=C/C(=O)Nc1cc2c(Nc3ccc(F)c(Cl)c3)ncnc2cc1O[C@H]1CCOC1 (stereo partly drawn) [Example 12, (E)-N-(4-(3-chloro-4-fluorophenylamino)-7-((S)-tetrahydrofuran-3-yloxy)quinazolin-6-yl)-4-(2-(methoxymethyl)azetidin-1-yl)but-2-enamide]
- IC50 [2]: 1.5 nM

- IC50 [1]: 5.8 nM
SMILES: COCCOc1cc2ncnc(Nc3ccc(F)c(Cl)c3)c2cc1NC(=O)/C=C/CN1CC[C@H]1COC [Example 7, (S,E)-N-(4-(3-chloro-4-fluorophenylamino)-7-(2-methoxyethoxy)quinazolin-6-yl)-4-(2-(methoxymethyl)azetidin-1-yl)but-2-enamide]

- IC50 [1]: 2.3 nM
SMILES: COc1cc2ncnc(Nc3ccc(F)c(Cl)c3)c2cc1NC(=O)/C=C/CN1CCC1CO (centres unmarked) [Example 1, (E)-N-(4-(3-chloro-4-fluorophenylamino)-7-methoxyquinazolin-6-yl)-4-(2-(hydroxymethyl)azetidin-1-yl)but-2-enamide]
- IC50 [2]: 5 nM

- IC50 [1]: 2 nM
SMILES: CCOc1cc2ncnc(Nc3ccc(F)c(Cl)c3)c2cc1NC(=O)/C=C/CN1CC[C@@H]1COC [Example 4, (R,E)-N-(4-(3-chloro-4-fluorophenylamino)-7-ethoxyquinazolin-6-yl)-4-(2-(methoxymethyl)azetidin-1-yl)but-2-enamide]
- Average Tumor Volume Day 21 [3, 4]: 436.6 ± 60.5 mm^3
- Inhibition rate [3, 4]: 73%
- T/C [3, 4]: 27%
- Average Tumor Volume Day 0 ([3]; 2 mg/kg p.o. once daily): 105.6 ± 9.9 mm^3
- Average Tumor Volume Day 21 [3, 5]: 49.7 ± 5.4 mm^3
- Inhibition rate [3, 5]: 154%
- T/C [3, 5]: −54%
- Average Tumor Volume Day 0 ([3]; 5 mg/kg p.o. once daily): 109.1 ± 10.1 mm^3

- IC50 [1]: 21.7 nM
SMILES: COC[C@@H]1CCN1C/C=C/C(=O)Nc1cc2c(Nc3ccc(F)c(Cl)c3)ncnc2cc1OCC1CC1 [Example 10, (S,E)-N-(4-(3-chloro-4-fluorophenylamino)-7-(cyclopropylmethoxy)quinazolin-6-yl)-4-(2-(methoxymethyl)azetidin-1-yl)but-2-enamide]

- IC50 [1]: 2.9 nM
SMILES: COC[C@H]1CCN1C/C=C/C(=O)Nc1cc2c(Nc3ccc(F)c(Cl)c3)ncnc2cc1OC[C@H]1COCCO1 [Example 14, (E)-N-(7-(((R)-1,4-dioxan-2-yl)methoxy)-4-(3-chloro-4-fluorophenylamino)quinazolin-6-yl)-4-((R)-2-(methoxymethyl)azetidin-1-yl)but-2-enamide]

- IC50 [1]: 17.5 nM
SMILES: O=C(/C=C/CN1CCC1CO)Nc1cc2c(Nc3ccc(F)c(Cl)c3)ncnc2cc1OC[C@@H]1COCCO1 (stereo partly drawn) [Example 16, (E)-N-(7-(((S)-1,4-dioxan-2-yl)methoxy)-4-(3-chloro-4-fluorophenylamino)quinazolin-6-yl)-4-(2-(hydroxymethyl)azetidin-1-yl)but-2-enamide]
- IC50 [2]: 39.5 nM

SMILES: CN(C)C/C=C/C(=O)Nc1cc2c(Nc3ccc(F)c(Cl)c3)ncnc2cc1O[C@H]1CCOC1 [Afatinib, reference compound]
- Average Tumor Volume Day 21 [3, 6]: 72.9 ± 7.9 mm^3
- Inhibition rate [3, 6]: 138%
- T/C [3, 6]: −38%
- Average Tumor Volume Day 0 ([3]; 20 mg/kg p.o. once daily): 117.2 ± 8.3 mm^3

- IC50 [1]: 1.4 nM
SMILES: COCCOc1cc2ncnc(Nc3ccc(F)c(Cl)c3)c2cc1NC(=O)/C=C/CN1CC[C@@H]1COC [Example 6, (R,E)-N-(4-(3-chloro-4-fluorophenylamino)-7-(2-methoxyethoxy)quinazolin-6-yl)-4-(2-(methoxymethyl)azetidin-1-yl)but-2-enamide]
- Average Tumor Volume Day 21 [3, 5]: 176.3 ± 24.2 mm^3
- Inhibition rate [3, 5]: 95%
- T/C [3, 5]: 5%
- Average Tumor Volume Day 0 ([3]; 5 mg/kg p.o. once daily): 116.9 ± 7.8 mm^3
- Average Tumor Volume Day 21 [3, 7]: 49.0 ± 3.9 mm^3
- Inhibition rate [3, 7]: 157%
- T/C [3, 7]: −57%
- Average Tumor Volume Day 0 ([3]; 10 mg/kg p.o. once daily): 114.8 ± 7.8 mm^3

- IC50 [1]: 3.9 nM
SMILES: O=C(/C=C/CN1CCC1CO)Nc1cc2c(Nc3ccc(F)c(Cl)c3)ncnc2cc1O[C@H]1CCOC1 (stereo partly drawn) [Example 11, (E)-N-(4-(3-chloro-4-fluorophenylamino)-7-((S)-tetrahydrofuran-3-yloxy)quinazolin-6-yl)-4-(2-(hydroxymethyl)azetidin-1-yl)but-2-enamide]
- IC50 [2]: 9.6 nM

- IC50 [1]: 2.7 nM
SMILES: O=C(/C=C/CN1CCC1CO)Nc1cc2c(Nc3ccc(F)c(Cl)c3)ncnc2cc1OC[C@H]1COCCO1 (stereo partly drawn) [Example 13, (E)-N-(7-(((R)-1,4-dioxan-2-yl)methoxy)-4-(3-chloro-4-fluorophenylamino)quinazolin-6-yl)-4-(2-(hydroxymethyl)azetidin-1-yl)but-2-enamide]
- IC50 [2]: 13.5 nM

SMILES: CS(=O)(=O)CCNCc1ccc(-c2ccc3ncnc(Nc4ccc(OCc5cccc(F)c5)c(Cl)c4)c3c2)o1 [Lapatinib, reference compound]
- Inhibition rate [3, 8]: 87%
- T/C [3, 8]: 13%
- Average Tumor Volume Day 0 [3]: 124.4 ± 7.3 mm^3

- IC50 [1]: 9.5 nM
SMILES: O=C(/C=C/CN1CCC1CO)Nc1cc2c(Nc3ccc(F)c(Cl)c3)ncnc2cc1OCC1CC1 (centres unmarked) [Example 8, (E)-N-(4-(3-chloro-4-fluorophenylamino)-7-(cyclopropylmethoxy)quinazolin-6-yl)-4-(2-(hydroxymethyl)azetidin-1-yl)but-2-enamide]
- IC50 [2]: 11.8 nM

- IC50 [1]: 10.8 nM
SMILES: O=C(/C=C/CN1CCC1CO)Nc1cc2c(Nc3ccc(F)c(Cl)c3)ncnc2cc1OC[C@H]1[C@@H]2COC[C@@H]21 (stereo partly drawn) [Example 18, (E)-N-(7-((1R,5S,6r)-3-oxabicyclo[3.1.0]hexan-6-ylmethoxy)-4-(3-chloro-4-fluorophenylamino)quinazolin-6-yl)-4-(2-(hydroxymethyl)azetidin-1-yl)but-2-enamide]
- IC50 [2]: 11.2 nM

- IC50 [1]: 1.6 nM
SMILES: COC[C@H]1CCN1C/C=C/C(=O)Nc1cc2c(Nc3ccc(F)c(Cl)c3)ncnc2cc1OC [Example 2, (R,E)-N-(4-(3-chloro-4-fluorophenylamino)-7-methoxyquinazolin-6-yl)-4-(2-(methoxymethyl)azetidin-1-yl)but-2-enamide]
- IC50 [2]: 1.6 nM
- Average Tumor Volume Day 21 [3, 4]: 584.4 ± 71.3 mm^3
- Inhibition rate [3, 4]: 61%
- T/C [3, 4]: 39%
- Average Tumor Volume Day 0 ([3]; 2 mg/kg p.o. once daily): 113.3 ± 4.4 mm^3
- Average Tumor Volume Day 21 [3, 5]: 54.3 ± 3.8 mm^3
- Inhibition rate [3, 5]: 154%
- T/C [3, 5]: −54%
- Average Tumor Volume Day 0 ([3]; 5 mg/kg p.o. once daily): 117.6 ± 7.2 mm^3

- IC50 [1]: 6.6 nM
SMILES: COC[C@H]1CCN1C/C=C/C(=O)Nc1cc2c(Nc3ccc(F)c(Cl)c3)ncnc2cc1OCC1CC1 [Example 9, (R,E)-N-(4-(3-chloro-4-fluorophenylamino)-7-(cyclopropylmethoxy)quinazolin-6-yl)-4-(2-(methoxymethyl)azetidin-1-yl)but-2-enamide]
- Average Tumor Volume Day 21 [3, 5]: 349.3 ± 43.8 mm^3
- Inhibition rate [3, 5]: 81%
- T/C [3, 5]: 19%
- Average Tumor Volume Day 0 ([3]; 5 mg/kg p.o. once daily): 124.1 ± 8.5 mm^3
- Average Tumor Volume Day 21 [3, 7]: 60.3 ± 6.9 mm^3
- Inhibition rate [3, 7]: 150%
- T/C [3, 7]: −50%
- Average Tumor Volume Day 0 ([3]; 10 mg/kg p.o. once daily): 120.2 ± 13.0 mm^3
